Patent US6835382B2, “Ii peptide therapeutics to enhance antigen presentation” (University of Massachusetts, priority 1996, dated 2004)
Non-standard residues stand in square brackets, D forms with d. hArg = N=C(N)NCCCC[C@H](N)C(=O)O; Cit = NC(=O)NCCC[C@H](N)C(=O)O

Key:
[1] = target: T1, murine E^d MHC class II allele (Mus musculus, UniProt P01904+P01915); experiment: simultaneous assay, E^d allele (A20 APC, G28.C9 T hybridoma, HEL106-116; HT-2 [3H]TdR readout); type: cell-based; parameters: The A20 and CH27 B cell lymphoma lines express H-2^d and H-2^k alleles, respectively; endogenous in cells; host or cells: A20 B cell lymphoma (mitomycin C-treated or paraformaldehyde-fixed)
T1 sequence (P01904 26-255): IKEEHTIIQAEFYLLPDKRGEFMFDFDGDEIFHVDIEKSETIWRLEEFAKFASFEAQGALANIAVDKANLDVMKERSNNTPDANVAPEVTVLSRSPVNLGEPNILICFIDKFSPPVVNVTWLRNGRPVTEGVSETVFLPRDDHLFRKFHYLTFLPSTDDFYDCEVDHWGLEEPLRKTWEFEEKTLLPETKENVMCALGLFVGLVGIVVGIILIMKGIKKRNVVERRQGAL
T1 sequence (P01915 27-264 limits assumed): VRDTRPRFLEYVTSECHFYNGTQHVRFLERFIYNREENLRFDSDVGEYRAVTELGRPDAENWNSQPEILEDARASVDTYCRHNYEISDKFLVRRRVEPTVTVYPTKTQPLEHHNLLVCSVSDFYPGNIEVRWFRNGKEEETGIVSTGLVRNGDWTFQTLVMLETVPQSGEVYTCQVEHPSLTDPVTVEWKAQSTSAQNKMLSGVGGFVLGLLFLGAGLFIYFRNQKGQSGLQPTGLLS
Outline: (§1)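 Read-out is [3H]TdR incorporation into HT-2 indicator cells exposed to supernatant from a 24 h primary culture. That culture combined mitomycin C-treated APC (5×10^6 cells/mL, 0.025 mg/mL mitomycin C, 20 min, 37° C), peptide, effector compound and T hybridoma, all added at once.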

[2] = system: murine E^k MHC class II allele; experiment: simultaneous assay, E^k allele (CH27 APC, TPc9.1 T hybridoma, THMCC82-103 or PGCC81-104); type: cell-based
Outline: as §1

[3] = Table 14, AE peptide 64 μM, supernatant 1:4
[4] = Table 15, AE peptide 16 μM, supernatant 1:4
[5] = Table 16, AE peptide 4 μM, supernatant 1:8
[6] = Table 11, AE peptide 64 μM, supernatant 1:8
[7] = Table 11, AE peptide 64 μM, supernatant 1:4
[8] = Table 13, AE peptide 1 μM (fourth value), supernatant 1:4
[9] = Table 13, AE peptide 4 μM (third value), supernatant 1:4
[10] = Table 13, AE peptide 16 μM (second value), supernatant 1:4
[11] = Table 13, AE peptide 64 μM (first value), supernatant 1:4
[12] = Table 7, AE peptide 64 μM, supernatant 1:4
[13] = Table 7, AE peptide 64 μM, supernatant 1:4, normalized by a factor of 5
[14] = Table 18, AE peptide 64 μM, supernatant 1:4

Substance: Ac-LRLKWPK-NH2 [AE309]
- Times Baseline Response, E^d [1, 3]: 12.1
- Times Baseline Response, E^d [1, 4]: 13.1
- Times Baseline Response, E^d [1, 5]: 20.0
- Times Baseline Response, E^k [2, 3]: 48.2
- Times Baseline Response, E^k [2, 4]: 38.0
- Times Baseline Response, E^k [2, 5]: 1.8

Substance: Ac-LRLKYPK-NH2 [AE301]
- Times Baseline Response, E^d [1, 3]: 12.5
- Times Baseline Response, E^d [1, 4]: 30.7
- Times Baseline Response, E^d [1, 5]: 20.1
- Times Baseline Response, E^k [2, 3]: 59.9
- Times Baseline Response, E^k [2, 4]: 46.6
- Times Baseline Response, E^k [2, 5]: 15.5

Substance: Ac-LRLKYPk-NH2 [AE307]
- Times Baseline Response, E^d [1, 3]: 13.2
- Times Baseline Response, E^k [2, 3]: 56.4

Substance: Ac-LRLKyPK-NH2 [AE308]
- Times Baseline Response, E^d [1, 3]: 12.6
- Times Baseline Response, E^k [2, 3]: 45.5

Substance: Ac-LRM M LPK-NH2 (Ac-LRMMLPK-NH2) [AE220]
- Times Baseline Response, E^d ([1]; Table 6, AE peptide 64 μM, supernatant 1:4): 2.8
- Times Baseline Response, E^d [1, 5]: 12.0
- Times Baseline Response, E^k ([2]; Table 6, AE peptide 64 μM, supernatant 1:4, reduced by a factor of 5): 12.5
- Times Baseline Response, E^k [2, 5]: 1.1

Substance: Ac-LRM k LPK-NH2 [AE163]
- Times Baseline Response, E^d [1, 6]: 2.4
- Times Baseline Response, E^k [2, 7]: 1.1

Substance: Ac-LRMK (mL) PK-NH2 [AE175]
- Times Baseline Response, E^d [1, 8]: 1
- Times Baseline Response, E^d [1, 9]: 6
- Times Baseline Response, E^d [1, 10]: 36
- Times Baseline Response, E^d [1, 11]: 61
- Times Baseline Response, E^d [1, 3]: 15.9
- Times Baseline Response, E^k [2, 8]: 2.8
- Times Baseline Response, E^k [2, 9]: 6.5
- Times Baseline Response, E^k [2, 10]: 28.5
- Times Baseline Response, E^k [2, 11]: 59.0
- Times Baseline Response, E^k [2, 3]: 58.0

Substance: Ac-LRMK Cit PK-NH2 (Ac-LRMK[Cit]PK-NH2; SMILES CSCC[C@H](NC(=O)[C@H](CCCNC(=N)N)NC(=O)[C@H](CC(C)C)NC(C)=O)C(=O)N[C@@H](CCCCN)C(=O)N[C@@H](CCCNC(N)=O)C(=O)N1CCC[C@H]1C(=O)N[C@@H](CCCCN)C(N)=O) [AE226]
- Times Baseline Response, E^d [1, 12]: 9.0
- Times Baseline Response, E^k [2, 13]: 9.0

Substance: Ac-LRMK D PK-NH2 (Ac-LRMKDPK-NH2) [AE230]
- Times Baseline Response, E^d [1, 12]: 0.6
- Times Baseline Response, E^k [2, 13]: 1.1

Substance: Ac-LRMK E PK-NH2 (Ac-LRMKEPK-NH2) [AE231]
- Times Baseline Response, E^d [1, 12]: 1.8
- Times Baseline Response, E^k [2, 13]: 1.2

Substance: Ac-LRMK F PK-NH2 (Ac-LRMKFPK-NH2) [AE234]
- Times Baseline Response, E^d [1, 12]: 14.2
- Times Baseline Response, E^k [2, 13]: 16.6

Substance: Ac-LRMK H PK-NH2 (Ac-LRMKHPK-NH2) [AE228]
- Times Baseline Response, E^d [1, 12]: 8.5
- Times Baseline Response, E^k [2, 13]: 20.3

Substance: Ac-LRMK HArg PK-NH2 (Ac-LRMK[hArg]PK-NH2; SMILES CSCC[C@H](NC(=O)[C@H](CCCNC(=N)N)NC(=O)[C@H](CC(C)C)NC(C)=O)C(=O)N[C@@H](CCCCN)C(=O)N[C@@H](CCCCNC(=N)N)C(=O)N1CCC[C@H]1C(=O)N[C@@H](CCCCN)C(N)=O) [AE227]
- Times Baseline Response, E^d [1, 12]: 8.1
- Times Baseline Response, E^d [1, 4]: 32.3
- Times Baseline Response, E^k [2, 13]: 20.5
- Times Baseline Response, E^k [2, 4]: 45.6

Substance: Ac-LRMK K PK-NH2 (Ac-LRMKKPK-NH2) [AE229]
- Times Baseline Response, E^d [1, 12]: 13.2
- Times Baseline Response, E^k [2, 13]: 16.2

Substance: Ac-LRMK M PK-NH2 (Ac-LRMKMPK-NH2) [AE236]
- Times Baseline Response, E^d [1, 12]: 15.2
- Times Baseline Response, E^k [2, 13]: 16.9

Substance: Ac-LRMK N PK-NH2 (Ac-LRMKNPK-NH2) [AE232]
- Times Baseline Response, E^d [1, 12]: 12.5
- Times Baseline Response, E^d [1, 4]: 24.3
- Times Baseline Response, E^k [2, 13]: 8.9
- Times Baseline Response, E^k [2, 4]: 15.5

Substance: Ac-LRMK Q PK-NH2 (Ac-LRMKQPK-NH2) [AE233]
- Times Baseline Response, E^d [1, 12]: 11.5
- Times Baseline Response, E^k [2, 13]: 17.0

Substance: Ac-LRMK Y PK-NH2 (Ac-LRMKYPK-NH2; not fully specified; printed as Ac-LRMK Y PK-NH2) [AE235]
- Times Baseline Response, E^d [1, 12]: 14.6
- Times Baseline Response, E^d [1, 3]: 12.5
- Times Baseline Response, E^d [1, 4]: 29.4
- Times Baseline Response, E^d [1, 5]: 14.3
- Times Baseline Response, E^d ([1]; Table 17, AE peptide 4 μM, supernatant 1:4): 51
- Times Baseline Response, E^d [1, 14]: 12.5
- Times Baseline Response, E^k [2, 13]: 21.8
- Times Baseline Response, E^k [2, 3]: 56.6
- Times Baseline Response, E^k [2, 4]: 47.7
- Times Baseline Response, E^k [2, 5]: 8.4
- Times Baseline Response, E^k ([2]; Table 17, AE peptide 64 μM, supernatant 1:4): 26.8
- Times Baseline Response, E^k [2, 14]: 56.6

Substance: Ac-LRMK l PK-NH2 [AE164]
- Times Baseline Response, E^d [1, 6]: 17.7
- Times Baseline Response, E^d [1, 3]: 12.9
- Times Baseline Response, E^k [2, 7]: 3.8
- Times Baseline Response, E^k [2, 3]: 43.9

Substance: Ac-LRMKL p K-NH2 [AE165]
- Times Baseline Response, E^d [1, 6]: 26.6
- Times Baseline Response, E^k [2, 7]: 3.6

Substance: Ac-LRMKLP F-NH2 (Ac-LRMKLPF-NH2) [AE248]
- Times Baseline Response, E^d ([1]; Table 9, AE peptide 64 μM, supernatant 1:4): 17.2
- Times Baseline Response, E^d [1, 4]: 34.7
- Times Baseline Response, E^k ([2]; Table 9, AE peptide 64 μM, supernatant 1:4, normalized by a factor of 5): 16.3
- Times Baseline Response, E^k [2, 4]: 42.6
